Measurements from the NIST ThermoML archive (doi:10.1021/je200477s).

Assay: wn = mass fraction of the nth substance listed
Details: 101 kPa, Liquid, Pycnometric method

CCCCn1cc[n+](C)c1.COS(=O)(=O)[O-] [1-butyl-3-methylimidazolium methyl sulfate] + O
mass density [kg/m3]
Details	w1 = 0.1501	w1 = 0.2002	w1 = 0.2991	w1 = 0.4993	w1 = 0.6519	w1 = 0.8012	w1 = 0.8701	w1 = 0.9325	w1 = 1
293.15 K	1025.8	1035.9	1056.1	1100.2	1134.9	1169.4	1184.8	1198.2	1211.7
295.15 K	1025.1	1035.2	1055.2	1099	1133.5	1168	1183.4	1196.8	1210.4
297.15 K	1024.4	1034.4	1054.3	1097.7	1132.2	1166.6	1182.1	1195.5	1209.1
299.15 K	1023.7	1033.6	1053.3	1096.5	1130.7	1165.2	1180.7	1194.1	1207.7
301.15 K	1022.9	1032.8	1052.3	1095.2	1129.4	1163.8	1179.3	1192.8	1206.4
303.15 K	1022.2	1031.9	1051.3	1093.9	1128	1162.4	1177.9	1191.4	1205.1

O [water] + CCCCn1cc[n+](C)c1.COS(=O)(=O)[O-]
w2 = 0
Details	mass density [kg/m3]
293.15 K	998.3
295.15 K	997.9
297.15 K	997.4
299.15 K	996.9
301.15 K	996.3
